From patent US10391070B2, “Compositions and methods for treating neurological diseases or injury” (MUSC FOUNDATION FOR RESEARCH DEVELOPMENT, priority 2012, dated 2019)

Columns and labels:
PTZ-induced seizures = assay: Subcutaneous PTZ seizure threshold test; assay type: in vivo, mouse; conditions: mice, 100 mg/kg i.p. pretreatment, PTZ 85 mg/kg s.c.
Experimental: Mouse studies were performed by NIH Anticonvulsant Screening Program at the National Institute of Neurological Disorders and Stroke (Stables and Kupferberg, 1997) according to the established NIH experimental procedures outlined below. Compounds were delivered into mice by i.p. injection at a dose of 100 mg/kg in sterile 5% DMSO, 95% Neobee (Josey et al., 2013). One of four methods for seizure induction was subsequently administered to mice at 0.25, 0.5, 1, 2 and 4 h after treatment with compound. (1) Subcutaneous PTZ seizure threshold test. PTZ was administered at a concentration of 85 mg/kg, into the loose fold of skin in the midline of the neck. […] (2) Maximal electroshock test. 60 Hz of 50 mA alternating current was delivered for 0.2 s by corneal electrodes. Mice were considered protected from seizures when the hindlimb tonic extensor was absent (White et al., 1995). (3) Minimal clonic seizure (6 Hz) test. 6 Hz of 32 mA or 44 mA alternating current was delivered for 3 s by corneal electrodes to elicit a psychomotor seizure. Mice were considered protected from seizures when the automatistic behaviors were absent (Barton et al., 2001). (4) Corneal kindled mouse model. Mice were kindled electrically with a 3 s stimulation, 8 mA, 60 Hz, and corneal electrodes to a criterion of 10 consecutive Stage 5 seizures (facial clonus and head nodding progressing to forelimb clonus, and finally rearing and falling accompanied by a generalized clonic seizure as described by Racine, 1972). Animals generally reach Stage 5 after twice daily stimulation for 8 days. With continued stimulation once a day, animals usually progressed to a reproducible Stage 5 after 10-14 additional days. At least 72 hours after the mice were kindled, the test substance was administered i.p. and each animal was given the electrical stimulus indicated above. […] Treated animals not displaying a Stage 4 or 5 seizure were considered protected.

PGAM5 = assay: Western blot, PGAM5 cleavage; assay type: cell-based, mouse; conditions: HT22, glutamate
Experimental: HT-22 cells were cultured and treated as described above for the qRT-PCR experiments. After 16 hrs, the media was collected and the cells harvested by trypsanization. After centrifugation, pelleted cells were washed with cold HBSS Ca^2+/Mg^2+ Free, followed by lysis with a low salt lysis buffer (50 mM Tris-HCl, pH 7.4, 150 mM NaCl, 10% glycerol, 0.5 Triton X-100, 1× protease and phosphatase inhibitor cocktail) for 30 min, followed by a 15-s sonication pulse at 30 W. For Western blot analysis, the cell lysates were denatured with LDS loading buffer (Invitrogen) and run on Nupage 4-12% Tris-glysine gradient gels (Invitrogen) after centrifugation. Phosphorylated Drp1 (Ser637) (Cell Signaling) and total Drp1 (C5) (Santa Cruz), PGAM5 (K16) (Santa Cruz Biotechnology), Actin (Sigma-Aldritch) and alpha-Tubulin (Santa Cruz Biotechnology) were assessed with primary antibody, followed by rabbit, mouse, or goat IgG-HRP secondary antibody. The blot was developed using Pierce Thermo Dura-ECL reagent (Thermo-Fisher) and visualized using an ImageQuant LAS 4000 (GE). Digital images of membranes were quantified by computer-assisted densitometry using Image J 1.42q (National Institutes of Health, MD).

HT22 cells = assay: Mitochondrial morphology and superoxide generation (MitoSOX, Mitotracker); assay type: cell-based, mouse; conditions: HT22, high extracellular glutamate, co-treatment
Experimental: In order to evaluate the source of the ROS generation, fluorescence microscopy was used to image HT22 using the fluorogenic dyes Mitotracker Deep Red (DR) and MitoSOX Red (Invitrogen). Mitotracker DR is a cell permeant dye that accumulates in active, polarized mitochondria. […] Briefly, HT22 cells were seeded onto black walled 96-well plates at 5.0×10^3 cells per well in 75 μL of medium and maintained at 37° C. in 5% CO2 overnight prior to the initiation of experimental treatments. Cells were subsequently treated with 25 μL of medium containing glutamate (monosodium glutamate, Sigma-Aldrich, 1 M stock concentration in media, to achieve a final concentration of 10 mM) plus inhibitors (stock in DMSO) and maintained at 37° C. in 5% CO2. After 8 hrs, MitoSOX Red (5 μM) and Mitotracker DR (10 nM) were added to achieve the indicated final concentrations. Cells were allowed to incubate for 20 minutes and then washed twice with Hanks Balanced Salt Solution (HBSS; Hyclone; CaCl2 1.26 mM, MgCl2-6H2O 0.493 mM, MgSO4-7H2O 0.407 mM, KCl 5.33 mM, KH2PO4 0.441 mM, NaHCO3 4.17 mM, NaCl 137.93 mM, Na2HPO4 0.338 mM, D-Glucose 5.56 mM), with a final addition of 100 μL of HBSS in which the cells were visualized. Cells were immediately visualized using an InCell 2000 Analyzer (GE) with a 40× objective and a Cy5/Cy5 excitation/emission filter set for Mitotracker DR and a YFP/Cy3 filter set for MitoSOX Red. Image processing was performed using ImageJ, and for all images, the microscope and image processing settings, such as levels, brightness, contrast, and exposure time were held constant across all treatment conditions.

Compound | effect on PTZ-induced seizures (PTZ-induced seizures) | increase in lower band (cleavage product) of PGAM5 (PGAM5; 125 nM) | mitochondrial superoxide generation and mitochondrial fragmentation (HT22 cells) | increase in lower band (cleavage product) of PGAM5 (PGAM5; 500 nM)
C#CCNC1=CC(=O)c2ccccc2C1=O [Compound 2h, 2-(prop-2-yn-1-ylamino)naphthalene-1,4-dione] | had no effect on PTZ-induced seizures in mice | – | – | –
O=C1C=C(NCc2ccccc2)C(=O)c2ccccc21 [Compound 2j, 2-(benzylamino)naphthalene-1,4-dione] | had no effect on PTZ-induced seizures in mice | completely attenuated | prevented these events | –
O=C1C=C(NCc2cccc(Cl)c2)C(=O)c2ccccc21 [Compound 2q, 2-((3-chlorobenzyl)amino)naphthalene-1,4-dione] | had no effect on PTZ-induced seizures in mice | completely attenuated | prevented these events | –
menaquinones [VK2, reference compound] | – | – | prevented these events | completely attenuated
